In one experiment the target is JAK1 (Homo sapiens, UniProt P23458). Description: JAK kinase inhibitor activity detection (ULight-JAK-1 substrate, Eu-labeled anti-phosphotyrosine antibody), JAK1. The class given is biochemical. The conditions noted are these: JAK1 10 nM, substrate 50 nM, ATP 40 uM, 2 h room temperature. The method, then: (§1) Activity Detection of Small Molecule Inhibitors of JAK Kinase
(§2) • (1) kinase reaction buffer • Prepare the kinase reaction buffer with the following components: 50 mM HEPES, pH 7.5, 1 mM EGTA, 10 mM MgCl2, 2 mM DTT, 0.01% Tween20 • (2) 1× detection buffer • To prepare detection buffer, dilute 10× detection buffer to 1× with deionized water 9:1 • (3) 4× kinase solution • Dilute JAK to 4× final concentration by JAK reaction buffer (JAK1: 40 nM, JAK2: 0.5 nM) • (4) 4× substrate solution • Dilute ULight™-JAK-1 (Tyr1023) substrate to 200 nM by kinase reaction buffer (final concentration: 50 nM) • (5) 4×ATP solution • Dilute ATP to 4× final concentration by kinase reaction buffer (JAK1: 160 μM, JAK2: 40 μM) • (6) 4× compound testing solution • DMSO dissolves the testing compound into 10 mM stock solution, then prepared to the desired concentration with 3-fold serial dilution, and 10 concentration points were set for each compound. Besides, the final concentration range of the testing compound is: 10 μM-0.5 nM • (7) 4× enzyme reaction termination liquid • 1× test buffer dissolves EDTA to 40 mM (EDTA final concentration: 10 mM) • (8) 4× antibody detection solution • 1× test buffer dilutes Eu labeled antibody (anti-phosphotyrosine (PT66)) to 8 nM (antibody final concentration: 2 nM) 2. Experimental Process • (1) Successively add 2.5 μL 4×JAK solution, and 2.5 μL of diluted 4× test compound solution in different concentrations to the 384 microporous plate, and set 2 multi-wells for each concentration. Meanwhile, set enzyme solution blank control group and negative control group (DMSO group). • (2) Shake the 384-hole plate, mix enzymes and compounds, centrifuge at 1000 rpm for 1 minute, and incubate at room temperature for 60 minutes • (3) Add 2.5 μL of 4× substrate solution to a 384-hole plate and centrifuge at 1000 rpm for 1 min • (4) Add 2.5 μL of 4×ATP solution to the 384 multi-well plate and centrifuge at 1000 rpm for 1 minute to initiate the enzyme reaction. • (5) JAK1 reacts at room temperature for 2 h, and JAK2 react at room temperature for 1 h. • (6) The final concentrations of each group of the JAK1 reaction are: JAK1: 10 nM, substrate: 50 nM, ATP: 40 uM, and the final concentration range of the test compound is: 10 μM-0.5 nM • The final concentrations of each group of the JAK2 reaction are: JAK2: 0.125 nM, substrate: 50 nM, ATP: 10 μM, and the final concentration range of test compounds is: 10 μM-0.5 nM • (7) After the enzyme reaction, add 5 μL of 4× enzyme reaction stop solution to each well of the 384-well plate with 1000 rpm, centrifuge for 1 minute, and incubate at room temperature for 5 min. • (8) Add 5 μL of 4× detection antibody solution to each well of a 384-well plate (final concentration of detection antibody is 2 nM) with 1000 rpm, centrifuge for 1 minute, and incubate at room temperature for 1 h. • (10) After antibody incubation, measure the signal value of each well on an Envision plate reader 3. Data Analysis • (1) Taking the enzyme solution blank control group as 100% inhibition rate and the negative control group (DMSO group) as 0% inhibition rate, calculate the percentage inhibition rate corresponding to each concentration of the tested compounds • (2) In GraphPad Prism software, nonlinear regression analysis is performed on the concentration logarithm of the test compound and the corresponding percentage inhibition rate to obtain the half-inhibitory concentration (IC50) of the test compound.

The target in the next experiment is JAK2 (Homo sapiens, UniProt O60674). Description: JAK kinase inhibitor activity detection (ULight-JAK-1 substrate, Eu-labeled anti-phosphotyrosine antibody), JAK2. Format: biochemical. The following applies: JAK2 0.125 nM, substrate 50 nM, ATP 10 μM, 1 h room temperature. The method, then: as §1, §2

Among the data in patent US12478620B2, “Cyano-substituted cyclic hydrazine derivative and application thereof” (E-nitiate Biopharmaceuticals (Hangzhou) Co., Ltd, priority 2019, dated 2025) are IC50 values, retold here.

Chain of JAK2 (O60674 whole entry, species assumed): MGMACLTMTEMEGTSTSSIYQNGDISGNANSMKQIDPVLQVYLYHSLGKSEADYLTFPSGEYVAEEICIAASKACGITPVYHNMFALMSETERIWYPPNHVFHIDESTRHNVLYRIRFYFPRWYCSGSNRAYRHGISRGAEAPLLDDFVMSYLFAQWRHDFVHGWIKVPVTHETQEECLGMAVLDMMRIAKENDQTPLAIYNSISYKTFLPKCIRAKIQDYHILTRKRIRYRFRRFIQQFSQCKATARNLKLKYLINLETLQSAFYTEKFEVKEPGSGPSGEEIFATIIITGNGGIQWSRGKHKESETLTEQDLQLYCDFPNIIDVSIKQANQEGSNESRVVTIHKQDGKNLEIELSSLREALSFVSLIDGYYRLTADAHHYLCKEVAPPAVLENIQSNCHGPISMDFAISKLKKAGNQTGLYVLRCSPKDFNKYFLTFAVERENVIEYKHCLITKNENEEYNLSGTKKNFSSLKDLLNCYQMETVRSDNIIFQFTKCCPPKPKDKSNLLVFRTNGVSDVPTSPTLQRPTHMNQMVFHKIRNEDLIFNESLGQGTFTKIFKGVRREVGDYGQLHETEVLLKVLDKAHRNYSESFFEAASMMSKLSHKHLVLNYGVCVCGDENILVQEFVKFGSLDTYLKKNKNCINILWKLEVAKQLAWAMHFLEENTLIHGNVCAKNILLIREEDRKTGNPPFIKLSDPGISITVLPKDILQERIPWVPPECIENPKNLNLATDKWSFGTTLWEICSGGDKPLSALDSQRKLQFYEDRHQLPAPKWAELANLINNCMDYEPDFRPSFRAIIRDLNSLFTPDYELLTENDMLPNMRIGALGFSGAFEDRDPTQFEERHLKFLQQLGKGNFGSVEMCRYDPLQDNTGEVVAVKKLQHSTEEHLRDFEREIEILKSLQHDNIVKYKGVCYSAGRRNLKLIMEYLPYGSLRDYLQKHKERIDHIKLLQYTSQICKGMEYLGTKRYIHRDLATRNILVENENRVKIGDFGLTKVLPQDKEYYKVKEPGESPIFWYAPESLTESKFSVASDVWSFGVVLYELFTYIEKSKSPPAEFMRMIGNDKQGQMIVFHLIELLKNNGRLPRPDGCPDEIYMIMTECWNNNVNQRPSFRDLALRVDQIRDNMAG
Chain of JAK1 (P23458 whole entry, species assumed): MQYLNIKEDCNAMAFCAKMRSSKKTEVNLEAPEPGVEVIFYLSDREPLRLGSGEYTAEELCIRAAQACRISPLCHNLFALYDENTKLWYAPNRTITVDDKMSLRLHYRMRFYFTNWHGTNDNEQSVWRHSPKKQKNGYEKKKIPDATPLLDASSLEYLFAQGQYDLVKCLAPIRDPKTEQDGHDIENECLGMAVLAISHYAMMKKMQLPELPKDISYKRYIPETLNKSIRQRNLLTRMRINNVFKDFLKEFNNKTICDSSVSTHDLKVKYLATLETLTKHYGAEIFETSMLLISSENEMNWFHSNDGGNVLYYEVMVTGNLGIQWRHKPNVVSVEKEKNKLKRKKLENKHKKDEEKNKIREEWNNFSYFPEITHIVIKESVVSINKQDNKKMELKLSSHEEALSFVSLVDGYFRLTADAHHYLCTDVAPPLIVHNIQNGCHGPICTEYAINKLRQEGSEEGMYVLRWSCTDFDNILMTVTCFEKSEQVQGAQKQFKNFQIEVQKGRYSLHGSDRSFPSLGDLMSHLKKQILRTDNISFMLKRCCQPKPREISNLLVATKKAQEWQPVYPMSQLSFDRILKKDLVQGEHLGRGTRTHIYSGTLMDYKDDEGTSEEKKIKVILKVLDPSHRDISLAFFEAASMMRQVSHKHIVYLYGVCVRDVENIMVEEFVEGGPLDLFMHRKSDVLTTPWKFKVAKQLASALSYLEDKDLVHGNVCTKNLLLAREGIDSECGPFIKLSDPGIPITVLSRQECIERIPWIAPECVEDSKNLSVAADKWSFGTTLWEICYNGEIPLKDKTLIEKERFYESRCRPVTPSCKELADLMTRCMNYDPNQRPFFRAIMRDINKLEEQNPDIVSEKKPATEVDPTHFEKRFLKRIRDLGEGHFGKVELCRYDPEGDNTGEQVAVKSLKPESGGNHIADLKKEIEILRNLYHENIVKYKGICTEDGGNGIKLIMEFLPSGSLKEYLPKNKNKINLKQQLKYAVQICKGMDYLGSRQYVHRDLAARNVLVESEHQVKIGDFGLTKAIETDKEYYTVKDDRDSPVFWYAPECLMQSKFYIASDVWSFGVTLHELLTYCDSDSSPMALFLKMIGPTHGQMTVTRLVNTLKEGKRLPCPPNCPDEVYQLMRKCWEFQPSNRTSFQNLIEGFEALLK

Regarding `C[C@@H](O)c1nc2cnc3[nH]ccc3c2n1N1CCCC(CC#N)CC1` (stereo partly drawn) [Example 27, 2-(1-(2-((R)-1-hydroxyethyl)imidazo[4,5-d]pyrrolo[2,3-b]pyridin-1(6H)-yl)-6-azepan-4-yl)acetonitrile], the IC50 against JAK1 turned out to be 1.7 nM; against JAK2 it was 2.3 nM.

In the case of `CCC1CN(C(=O)CC#N)CN1n1cnc2cnc3[nH]ccc3c21` (stereo not shown) [Example 28], the IC50 on JAK1 came out at 3.5 nM; at JAK2 it was 13.1 nM.

Consider `CCC1CN(CCC#N)CN1n1cnc2cnc3[nH]ccc3c21` (stereo not shown) [Example 29, 3-(4-ethyl-3-(imidazo[4,5-d]pyrrolo[2,3-b]pyridine-1(6H)-yl)imidazolidine-1-yl)propionitrile], for which the figures for the IC50 on JAK1 and at JAK2 were 13.9 nM and 27.5 nM, respectively.

For the compound `CC1CN(C(=O)CC#N)CN1n1cnc2cnc3[nH]ccc3c21` (stereo not shown) [Example 30, 3-(4-methyl-3-(imidazo[4,5-d]pyrrolo[2,3-b]pyridine-1(6H)-yl)imidazoline-1-yl)-3-Oxopropionitrile], the results for the IC50 on JAK1 and against JAK2 were 2.8 nM and 28.1 nM, respectively.

For `N#CCC(=O)N1CCN(n2cnc3cnc4[nH]ccc4c32)C1` [Example 31, 3-(3-(imidazo[4,5-d]pyrrolo[2,3-b]pyridine-1(6H)-yl)imidazoline-1-yl)-3-oxopropionitrile], the IC50 against JAK1 is 6.9 nM; against JAK2 it was 71.8 nM.

Take `CC[C@@H]1CN(C(=O)CC#N)CN1n1cnc2cnc3[nH]ccc3c21` [Example 32, (R)-3-(4-ethyl-3-(imidazo[4,5-d]pyrrolo[2,3-b]pyridine-1(6H)-yl)imidazoline-1-yl)-3-oxopropionitrile]: the IC50 was determined as 6.8 nM against JAK1 and 15.3 nM at JAK2.

With `N#CCC(=O)NC1CCN(n2cnc3cnc4[nH]ccc4c32)C1` (stereo not shown) [Example 33, 2-cyano-N-(1-(imidazo[4,5-d]pyrrolo[2,3-b]pyridine-1(6H)-yl)pyrrolidine-3-yl)acetamide], the IC50 at JAK1 worked out at 11.2 nM; at JAK2, 29.1 nM.

For `N#CCNC1CCN(n2cnc3cnc4[nH]ccc4c32)C1` (stereo not shown) [Example 34, 2-((1-(imidazo[4,5-d]pyrrolo[2,3-b]pyridine-1(6H)-yl)pyrrolidine-3-yl)amino)acetonitrile], the figures for the IC50 at JAK1 and on JAK2 were 73.8 nM and 51.7 nM, respectively.

For the compound `CC[C@@H]1C[C@H](C#N)CN1n1cnc2cnc3[nH]ccc3c21` [Example 35, (3S,5R)-5-ethyl-1-(imidazo[4,5-d]pyrrole[2,3-b]pyridine(6H)-yl)pyrrolidine-3-carbonitrile], the concentration for half-maximal inhibition (IC50) against JAK1 was 9.5 nM; against JAK2, 61.3 nM.

`CC[C@@H]1C[C@@H](CC#N)CN1n1cnc2cnc3[nH]ccc3c21` [Example 36-1, 2-((3S,5R)-5-ethyl-1-(imidazo[4,5-d]pyrrolo[2,3-b]pyridine-1(6H)-yl)pyrrolidin-3-yl) acetonitrile]: the IC50 on JAK1 came to 6.8 nM; at JAK2 it was 23.5 nM.

For `CC[C@@H]1C[C@H](CC#N)CN1n1cnc2cnc3[nH]ccc3c21` [Example 36-2, 2-((3R,5R)-5-ethyl-1-(imidazo[4,5-d]pyrrolo[2,3-b]pyridine-1(6H)-yl)pyrrolidin-3-yl) acetonitrile], the IC50 against JAK1 amounted to 43.6 nM; at JAK2, 127 nM.

As a reminder, the IC50 is the point on the concentration scale where inhibition reaches its midpoint. A low value points to inhibition by little substance.
